Assay results from US9682141B2, “Combination of kinase inhibitors and uses thereof” (INTELLIKINE LLC, priority 2011, dated 2017).

Tests used:
Assay type in all cases: biochemical
[1] = molecular target: PI3K β (Homo sapiens (Human), UniProt P42338); assay: PI 3-Kinase (human) HTRF assay, p110β/p85α
[2] = molecular target: PI3K α (Homo sapiens (Human), UniProt P42336); assay: PI 3-Kinase (human) HTRF assay, p110α/p85α
[3] = molecular target: PI3K δ (Homo sapiens (Human), UniProt O00329); assay: PI 3-Kinase (human) HTRF assay, p110δ/p85α
Method: (§1) An exemplary system is PI 3-Kinase (human) HTRF™ Assay from Upstate. […] Briefly, the assay is a time resolved FRET assay that indirectly measures PIP3 product formed by the activity of a PI3-K. The kinase reaction is performed in a microtitre plate (e.g., a 384 well microtitre plate). The total reaction volume is approximately 20 ul per well. In the first step, each well receives 2 ul of test compound in 20% dimethylsulphoxide resulting in a 2% DMSO final concentration. Next, approximately 14.5 ul of a kinase/PIP2 mixture (diluted in 1× reaction buffer) is added per well for a final concentration of 0.25-0.3 ug/ml kinase and 10 μM PIP2. The plate is sealed and incubated for 15 minutes at room temperature. To start the reaction, 3.5 ul of ATP (diluted in 1× reaction buffer) is added per well for a final concentration of 10 μM ATP. The plate is sealed and incubated for 1 hour at room temperature. The reaction is stopped by adding 5 ul of Stop Solution per well and then 5 ul of Detection Mix is added per well. The plate is sealed, incubated for 1 hour at room temperature, and then read on an appropriate plate reader. Data is analyzed and IC50s are generated using GraphPad Prism 5. For PI3K α, β, δ, and γ, the nM concentration of inhibitor to reach IC50 is provided.

[4] = molecular target: PI3K γ (Homo sapiens (Human), UniProt P48736); assay: PI 3-Kinase (human) HTRF assay, p110γ; details: read-out: PI3K γ IC50
Sequence of PI3K γ (P48736 whole entry): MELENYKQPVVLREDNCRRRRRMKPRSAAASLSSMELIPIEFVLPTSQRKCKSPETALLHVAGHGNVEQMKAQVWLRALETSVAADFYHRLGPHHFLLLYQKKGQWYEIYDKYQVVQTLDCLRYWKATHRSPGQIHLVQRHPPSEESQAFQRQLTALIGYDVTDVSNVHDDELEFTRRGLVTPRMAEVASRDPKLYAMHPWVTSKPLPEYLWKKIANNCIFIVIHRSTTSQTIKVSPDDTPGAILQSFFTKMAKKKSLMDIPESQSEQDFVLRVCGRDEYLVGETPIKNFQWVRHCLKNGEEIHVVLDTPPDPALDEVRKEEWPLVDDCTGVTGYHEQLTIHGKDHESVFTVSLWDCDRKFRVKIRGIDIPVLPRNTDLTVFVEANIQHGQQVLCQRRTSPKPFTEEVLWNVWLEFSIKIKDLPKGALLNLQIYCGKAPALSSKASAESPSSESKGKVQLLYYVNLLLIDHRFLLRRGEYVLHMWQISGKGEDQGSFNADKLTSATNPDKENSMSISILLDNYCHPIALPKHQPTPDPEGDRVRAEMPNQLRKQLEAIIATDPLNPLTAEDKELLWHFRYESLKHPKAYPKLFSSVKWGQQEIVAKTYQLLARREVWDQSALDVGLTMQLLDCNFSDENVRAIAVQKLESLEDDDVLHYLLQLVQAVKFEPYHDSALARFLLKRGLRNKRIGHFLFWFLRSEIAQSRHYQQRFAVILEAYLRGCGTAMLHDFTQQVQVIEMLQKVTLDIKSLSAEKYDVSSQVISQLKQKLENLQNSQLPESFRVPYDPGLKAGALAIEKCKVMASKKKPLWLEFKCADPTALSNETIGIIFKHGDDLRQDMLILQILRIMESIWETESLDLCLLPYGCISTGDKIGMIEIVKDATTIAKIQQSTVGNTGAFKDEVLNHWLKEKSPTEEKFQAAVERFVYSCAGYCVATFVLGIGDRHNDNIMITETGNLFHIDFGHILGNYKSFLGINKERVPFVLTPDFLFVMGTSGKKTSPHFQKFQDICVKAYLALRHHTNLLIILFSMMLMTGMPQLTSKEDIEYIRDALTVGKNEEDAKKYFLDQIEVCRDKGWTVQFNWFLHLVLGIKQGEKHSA
Method: as §1

Sequence of PI3K β (P42338 whole entry): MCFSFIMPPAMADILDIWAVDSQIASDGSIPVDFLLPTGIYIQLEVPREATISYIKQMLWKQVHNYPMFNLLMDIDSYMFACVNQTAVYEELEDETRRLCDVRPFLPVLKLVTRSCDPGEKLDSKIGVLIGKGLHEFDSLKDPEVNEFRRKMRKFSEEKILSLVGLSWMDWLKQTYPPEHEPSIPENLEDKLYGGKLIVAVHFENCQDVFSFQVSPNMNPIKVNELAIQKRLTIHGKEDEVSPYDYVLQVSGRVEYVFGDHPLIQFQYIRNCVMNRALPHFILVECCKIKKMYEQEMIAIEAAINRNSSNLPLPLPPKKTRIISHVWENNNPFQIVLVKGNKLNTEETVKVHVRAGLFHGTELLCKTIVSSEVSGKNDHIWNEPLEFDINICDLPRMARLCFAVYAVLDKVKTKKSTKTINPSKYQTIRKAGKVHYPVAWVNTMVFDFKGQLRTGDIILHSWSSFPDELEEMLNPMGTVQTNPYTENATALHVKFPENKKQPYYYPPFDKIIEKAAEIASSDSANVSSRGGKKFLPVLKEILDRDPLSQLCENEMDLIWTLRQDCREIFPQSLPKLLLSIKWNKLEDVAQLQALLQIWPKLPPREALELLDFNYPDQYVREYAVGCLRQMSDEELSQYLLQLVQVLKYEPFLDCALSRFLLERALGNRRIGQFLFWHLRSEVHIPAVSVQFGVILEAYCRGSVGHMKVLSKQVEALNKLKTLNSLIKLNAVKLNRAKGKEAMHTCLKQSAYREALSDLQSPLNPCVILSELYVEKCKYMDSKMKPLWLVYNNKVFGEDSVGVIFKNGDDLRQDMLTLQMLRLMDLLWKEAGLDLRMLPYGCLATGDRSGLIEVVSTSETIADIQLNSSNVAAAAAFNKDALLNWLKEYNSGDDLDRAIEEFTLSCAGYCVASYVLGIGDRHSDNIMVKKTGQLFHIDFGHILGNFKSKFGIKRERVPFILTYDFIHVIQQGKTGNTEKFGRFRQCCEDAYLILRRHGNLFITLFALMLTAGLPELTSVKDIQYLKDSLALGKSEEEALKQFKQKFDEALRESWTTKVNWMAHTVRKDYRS
Sequence of PI3K β (P27986 whole entry partner): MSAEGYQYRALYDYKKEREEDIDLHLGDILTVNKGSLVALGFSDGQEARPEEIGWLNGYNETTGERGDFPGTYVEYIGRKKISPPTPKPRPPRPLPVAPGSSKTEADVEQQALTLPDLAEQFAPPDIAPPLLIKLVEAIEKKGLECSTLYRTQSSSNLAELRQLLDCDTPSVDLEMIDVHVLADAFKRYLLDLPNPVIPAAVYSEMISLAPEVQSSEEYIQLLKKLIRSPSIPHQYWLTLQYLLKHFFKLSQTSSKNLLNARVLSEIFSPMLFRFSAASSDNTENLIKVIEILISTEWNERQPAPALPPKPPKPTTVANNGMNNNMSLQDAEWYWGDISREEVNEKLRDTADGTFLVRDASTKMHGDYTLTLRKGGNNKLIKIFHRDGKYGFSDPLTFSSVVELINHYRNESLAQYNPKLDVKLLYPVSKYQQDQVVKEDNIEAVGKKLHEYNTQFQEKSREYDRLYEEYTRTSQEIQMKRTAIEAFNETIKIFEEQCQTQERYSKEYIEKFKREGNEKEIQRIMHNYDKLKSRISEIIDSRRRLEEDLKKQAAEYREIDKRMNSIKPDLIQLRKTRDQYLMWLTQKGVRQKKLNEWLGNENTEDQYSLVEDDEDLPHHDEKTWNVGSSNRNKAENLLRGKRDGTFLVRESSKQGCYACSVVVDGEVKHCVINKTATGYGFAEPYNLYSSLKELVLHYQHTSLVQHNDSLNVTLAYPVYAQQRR
Sequence of PI3K α (P42336 whole entry): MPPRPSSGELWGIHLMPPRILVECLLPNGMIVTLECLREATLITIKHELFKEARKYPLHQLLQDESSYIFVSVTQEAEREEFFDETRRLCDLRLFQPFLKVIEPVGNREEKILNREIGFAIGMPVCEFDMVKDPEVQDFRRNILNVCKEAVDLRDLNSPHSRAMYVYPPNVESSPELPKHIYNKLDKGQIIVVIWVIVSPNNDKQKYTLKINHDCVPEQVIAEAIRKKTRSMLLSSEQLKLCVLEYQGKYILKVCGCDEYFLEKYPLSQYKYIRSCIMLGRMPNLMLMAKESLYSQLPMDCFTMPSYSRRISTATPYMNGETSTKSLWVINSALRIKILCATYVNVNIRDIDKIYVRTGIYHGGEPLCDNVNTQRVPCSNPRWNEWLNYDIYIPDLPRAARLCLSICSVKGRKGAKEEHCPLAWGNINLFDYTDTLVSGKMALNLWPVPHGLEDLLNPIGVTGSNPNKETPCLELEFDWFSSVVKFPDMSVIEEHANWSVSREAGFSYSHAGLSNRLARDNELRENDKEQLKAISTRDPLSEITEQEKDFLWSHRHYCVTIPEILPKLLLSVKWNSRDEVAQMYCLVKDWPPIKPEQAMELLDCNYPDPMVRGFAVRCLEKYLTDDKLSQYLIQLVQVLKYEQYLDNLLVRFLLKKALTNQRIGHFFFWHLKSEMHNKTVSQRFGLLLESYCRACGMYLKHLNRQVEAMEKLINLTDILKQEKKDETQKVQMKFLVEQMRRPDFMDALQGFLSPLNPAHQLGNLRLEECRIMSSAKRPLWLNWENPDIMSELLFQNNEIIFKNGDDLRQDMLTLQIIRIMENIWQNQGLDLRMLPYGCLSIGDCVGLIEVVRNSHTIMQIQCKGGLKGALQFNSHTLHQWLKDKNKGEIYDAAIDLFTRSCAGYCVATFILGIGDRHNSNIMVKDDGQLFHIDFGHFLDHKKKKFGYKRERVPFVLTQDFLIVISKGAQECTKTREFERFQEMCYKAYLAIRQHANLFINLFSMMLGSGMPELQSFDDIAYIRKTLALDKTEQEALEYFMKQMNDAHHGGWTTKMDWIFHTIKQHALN
Sequence of PI3K α (P27986 whole entry partner): as the sequence (P27986 whole entry partner) above
Sequence of PI3K δ (O00329 whole entry): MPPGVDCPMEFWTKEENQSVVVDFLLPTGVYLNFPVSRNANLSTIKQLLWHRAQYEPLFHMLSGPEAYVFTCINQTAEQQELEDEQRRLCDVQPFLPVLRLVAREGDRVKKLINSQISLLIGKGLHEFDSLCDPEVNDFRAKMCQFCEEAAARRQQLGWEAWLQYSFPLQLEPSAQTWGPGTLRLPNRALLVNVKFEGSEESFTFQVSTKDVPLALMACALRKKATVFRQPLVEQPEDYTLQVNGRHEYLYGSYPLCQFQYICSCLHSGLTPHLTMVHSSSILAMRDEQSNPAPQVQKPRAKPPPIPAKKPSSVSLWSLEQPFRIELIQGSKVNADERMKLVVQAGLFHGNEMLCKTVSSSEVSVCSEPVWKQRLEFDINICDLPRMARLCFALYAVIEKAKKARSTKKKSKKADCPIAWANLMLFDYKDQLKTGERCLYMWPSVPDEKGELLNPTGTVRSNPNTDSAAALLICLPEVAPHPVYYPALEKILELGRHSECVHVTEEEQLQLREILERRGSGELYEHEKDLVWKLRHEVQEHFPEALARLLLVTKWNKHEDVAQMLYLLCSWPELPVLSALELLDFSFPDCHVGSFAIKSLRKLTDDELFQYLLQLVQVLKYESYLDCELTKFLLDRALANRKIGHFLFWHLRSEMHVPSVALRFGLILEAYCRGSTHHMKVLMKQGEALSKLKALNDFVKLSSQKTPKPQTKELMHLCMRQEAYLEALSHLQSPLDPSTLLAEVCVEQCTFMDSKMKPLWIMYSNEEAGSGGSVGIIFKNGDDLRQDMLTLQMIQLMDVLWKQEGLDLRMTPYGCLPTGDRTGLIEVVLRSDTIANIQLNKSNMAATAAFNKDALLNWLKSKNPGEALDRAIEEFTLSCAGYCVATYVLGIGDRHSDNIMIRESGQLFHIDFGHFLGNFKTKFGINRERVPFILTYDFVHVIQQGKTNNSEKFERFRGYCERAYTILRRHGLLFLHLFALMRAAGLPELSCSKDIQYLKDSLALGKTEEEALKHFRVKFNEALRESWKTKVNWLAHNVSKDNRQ
Sequence of PI3K δ (P27986 whole entry partner): as the sequence (P27986 whole entry partner) above

Compound | IC50 [1] [nM] | IC50 [2] [nM] | IC50 [3] [nM] | IC50 [4] [nM]
C[C@@H](N)C(=O)N1CCN(c2cnc3ccc(-c4ccc5oc(N)nc5c4)nc3n2)CC1 | < 10000 | < 100 | < 10000 | < 1000
CC(=O)N1CCC(Nc2cnc3ccc(-c4ccc5oc(N)nc5c4)cc3n2)CC1 | < 10000 | < 100 | < 100 | < 100
CS(=O)(=O)N1CCN(c2cnc3ccc(-c4ccc5oc(N)nc5c4)cc3n2)CC1 | < 1000 | < 100 | < 1000 | < 100
CC1CN(c2cnc3ccc(-c4ccc5oc(N)nc5c4)cc3n2)CCN1 (stereo not shown) | < 100 | < 100 | < 10000 | < 1000
Nc1nc2cc(-c3ccc4ncc(N5CCOCC5)n4n3)ccc2o1 | < 1000 | < 1000 | > 10000 | < 10000
CS(=O)(=O)CCN1CCC(Nc2cnc3ccc(-c4ccc5oc(N)nc5c4)cc3n2)CC1 | < 10000 | < 100 | < 1000 | < 100
CN(C)C1CCN(c2cnc3ccc(-c4ccc5oc(N)nc5c4)cc3n2)CC1 | < 100 | < 100 | < 100 | < 1000
CN1CCN(c2cnc3ccc(-c4ccc5oc(N)nc5c4)nc3n2)CC1 | < 1000 | < 1000 | < 10000 | < 10000
Nc1nc2cc(-c3ccc4ncc(C(=O)N5CCOCC5)n4n3)ccc2o1 | < 10000 | < 1000 | > 10000 | < 1000
CN1CCN(c2cnc3ccc(-c4ccc5nc(N)oc5c4)cc3n2)CC1 | < 100 | < 1000 | > 10000 | < 10000
Nc1nc2ccc(-c3ccc4ncc(C(=O)N5CCOCC5)n4c3)cc2s1 | > 10000 | < 1000 | < 10000 | < 1000
CC(C)N1CCN(C2CN(c3cnc4ccc(-c5ccc6oc(N)nc6c5)nc4n3)C2)CC1 | > 10000 | < 10000 | > 10000 | > 10000
C[C@H]1CN(c2cnc3ccc(-c4ccc5oc(N)nc5c4)cc3n2)CCN1 | < 100 | < 100 | < 1000 | < 1000
CN1CCC(Nc2cnc3ccc(-c4ccc5oc(N)nc5c4)cc3n2)CC1 | < 1000 | < 100 | < 100 | < 1000
Nc1nc2cc(-c3ccc4ncc(-c5cccnc5)cc4n3)ccc2o1 | < 10000 | < 100 | < 10000 | < 100
Nc1nc2cc(-c3c[nH]c4nccc(-c5ccncc5)c34)ccc2o1 [Compound 25] | > 10000 | < 10000 | > 10000 | < 10000
Cc1ccc(-c2cnc3ccc(-c4ccc5oc(N)nc5c4)cc3n2)cn1 | > 10000 | < 100 | > 10000 | < 100
Cc1nc2ccc(-c3ccc4oc(N)nc4c3)cn2c1C(=O)N1CCOCC1 | > 10000 | > 10000 | > 10000 | > 10000
Nc1nc2cc(-c3ccc4ncc(-c5cccnc5)n4n3)ccc2o1 | < 100 | < 100 | < 100 | < 100
Nc1nc2cc(-c3cn4c(C(=O)N5CCOCC5)cnc4cn3)ccc2o1 | > 10000 | > 10000 | > 10000 | > 10000

Compound | IC50 [1] [nM] | IC50 [2] [nM] | IC50 [3] [nM] | IC50 [4] [nM]
CCN1CCN(C(=O)c2cnc3ccc(-c4ccc5oc(N)nc5c4)cn23)CC1 | > 10000 | < 1000 | > 10000 | < 10000
Nc1nc2cc(-c3ccc4ncc(C(=O)N5CCN(CC6CC6)CC5)n4c3)ccc2o1 | < 10000 | < 1000 | < 10000 | < 10000
Nc1nc2cc(-c3cnc4ccc(N5CCOCC5)nc4c3)ccc2o1 | > 10000 | < 10000 | > 10000 | < 10000
CC(C)(N)C(=O)N1CCN(c2ccc3ncc(-c4ccc5oc(N)nc5c4)cc3n2)CC1 | > 10000 | < 10000 | > 10000 | < 10000
Nc1nc2cc(-c3ccc4ncc(C(=O)NCCO)n4c3)ccc2o1 | < 1000 | < 100 | < 1000 | < 100
Nc1nc2cc(-c3cnc4ccc(N5C6CCC5COC6)nc4c3)ccc2o1 | > 10000 | < 10000 | > 10000 | < 10000
Nc1nc2cc(-c3ccc4ncc(N5CCNCC5)nc4c3)ccc2o1 | < 100 | < 100 | < 10000 | < 1000
Nc1nc2cc(-c3cnc4ncc(-c5ccncc5)n4c3)ccc2o1 | > 10000 | > 10000 | > 10000 | > 10000
Nc1nc2cc(-c3ccc4ncc(-c5ccc(N6CCOCC6)nc5)n4c3)ccc2o1 [Compound 51] | < 1000 | < 100 | < 1000 | < 1000
Nc1nc2cc(-c3ccc4ncnc(NC5CCN(C(=O)C6CC6)CC5)c4c3)ccc2o1 | < 10000 | < 100 | < 100 | < 100
CC(C)(C)N1CCN(C(=O)c2cnc3ccc(-c4ccc5oc(N)nc5c4)cn23)CC1 | < 10000 | < 100 | < 10000 | < 10000
Nc1nc2cc(-c3ccc4ncc(C(=O)N5CCN(CCO)CC5)n4c3)ccc2o1 | > 10000 | < 100 | > 10000 | < 10000
Nc1nsc2cc(-c3ccc4nccc(-c5ccncc5)c4c3)ccc12 [Compound 13] | < 1000 | < 100 | < 1000 | < 1000
Nc1nc2cc(-c3ccc4ncc(N5CCN(CC6CC6)CC5)nc4c3)ccc2o1 | < 100 | < 100 | < 1000 | < 1000
Nc1nc2cc(-c3ccc4ncc(C(=O)N5CCNCC5)n4c3)ccc2o1 | < 10000 | < 100 | > 10000 | > 10000
CC(C)N1CCC(Nc2ncnc3ccc(-c4ccc5oc(N)nc5c4)cc23)CC1 | < 10000 | < 100 | < 1000 | < 10000
Cc1nc2ccc(-c3ccc4oc(N)nc4c3)cn2c1C(=O)N1CCN(C)CC1 | > 10000 | > 10000 | > 10000 | > 10000
Nc1nc2cc(-c3ccc4ncn(CCO)c(=O)c4c3)ccc2o1 | < 10000 | < 100 | > 10000 | < 1000
Nc1nc2cc(-c3ccc4ncc(N5CCOCC5)n4c3)ccc2o1 [Compound 53] | > 10000 | < 10000 | > 10000 | > 10000
Nc1nc2cc(-c3ccc4ncc(C(=O)N5CCC(O)CC5)n4c3)ccc2o1 | > 10000 | < 1000 | > 10000 | < 10000

Compound | IC50 [1] [nM] | IC50 [2] [nM] | IC50 [3] [nM] | IC50 [4] [nM]
Nc1nc2cc(-c3ccc4ncc(N5CC(N6CCN(C7CC7)CC6)C5)cc4n3)ccc2o1 | < 10000 | < 100 | < 10000 | < 1000
Nc1nc2cc(-c3ccc4ncc(-c5cn[nH]c5)nc4c3)ccc2o1 | < 1000 | < 100 | < 1000 | < 100
Nc1nc2cc(-c3ccc4ncc(N5CCCC5)nc4c3)ccc2o1 | < 1000 | < 100 | < 1000 | < 100
Nc1nc2cc(-c3ccc4ncc(N5CCNC(=O)C5)nc4n3)ccc2o1 | < 1000 | < 100 | < 10000 | < 100
CN1CCCN(C(=O)c2cnc3ccc(-c4ccc5oc(N)nc5c4)cn23)CC1 | < 10000 | < 1000 | > 10000 | > 10000
COC(=O)N1CCN(c2cnc3ccc(-c4ccc5oc(N)nc5c4)cc3n2)CC1 | < 1000 | < 100 | < 10000 | < 100
CN1CCC(N(C)c2ncnc3ccc(-c4ccc5oc(N)nc5c4)cc23)CC1 | < 100 | < 100 | < 1000 | < 100
Nc1nc2cc(-c3ccc4ncc(-c5cccnc5)nc4n3)ccc2o1 | < 10000 | < 1000 | > 10000 | < 1000
Nc1nc2cc(-c3ccc4ncnc(NC5CCOCC5)c4c3)ccc2o1 [Compound 24] | < 1000 | < 100 | < 100 | < 100
CN1CCN(C(=O)c2cnc3ccc(-c4ccc5nc(N)oc5c4)cn23)CC1 | < 10000 | < 1000 | > 10000 | > 10000
Nc1noc2cc(-c3ccc4nccc(-c5ccncc5)c4c3)ccc12 [Compound 16] | < 10000 | < 100 | < 10000 | < 1000
Nc1nc2cc(-c3cn4c(-c5ccncc5)cnc4cn3)ccc2o1 | < 10000 | < 100 | < 10000 | < 1000
Nc1nc2cc(-c3ccc4ncc(-c5ccncc5)nc4c3)ccc2o1 | < 10000 | < 100 | < 1000 | < 100
CCn1cnc2ccc(-c3ccc4oc(N)nc4c3)cc2c1=O | < 10000 | < 100 | < 10000 | < 100
Cc1cn(-c2cnc3ccc(-c4ccc5oc(N)nc5c4)cc3n2)cn1 | > 10000 | < 100 | > 10000 | < 1000
Nc1nc2cc(-c3ccc4nc(N5CCOCC5)cnc4n3)ccc2o1 | > 10000 | > 10000 | > 10000 | > 10000
CS(=O)(=O)N1CCN(C(=O)c2cnc3ccc(-c4ccc5oc(N)nc5c4)cn23)CC1 | > 10000 | < 100 | < 10000 | < 1000
CN1CCN(C(=O)c2cnc3ccc(-c4ccc5nc(N)sc5c4)cn23)CC1 | < 10000 | < 10000 | > 10000 | > 10000
